Source: article PMC10166914, “GTN057, a komaroviquinone derivative, induced myeloma cells' death in vivo and inhibited c‐MET tyrosine kinase” (Cancer Medicine, 2023)

Legend:
MUM24 cells = experiment: Combination treatment with bortezomib or lenalidomide, MTT assay; assay type: cell-based, human; settings: GTN057 with bortezomib or lenalidomide
Procedure: FIGURE 1 GTN057 induced the cell death of MM cells in vitro. (A) The chemical structure of GTN057 and the putative degradation product, GTN054. (B) GTN057 induced the cell death of the MM cell lines. The cells were incubated with GTN057 for 48 h, and the number of viable cells was counted by trypan blue exclusion test. Bars: mean ± SD (n = 3). *p < 0.05 versus control. (C) Growth‐inhibitory effects of GTN057 on CD138‐positive cells obtained from MM patients' bone marrow. Cells were treated with GTN057. The viability was evaluated by an MTT assay. Bars: mean ± SD (n = 3). *p < 0.05 versus control. (D) Combination treatment of GTN057 with bortezomib (Btz) or lenalidomide (Len), two major standard myeloma drugs, in MUM24 cells. The viability was evaluated by an MTT assay. Bars: mean ± SD (n = 3). *p < 0.05 versus GTN057 alone. […]
For the 3‐[…] (MTT) assay (Roche Diagnostics), 6 × 10^4 cells/mL of CD138‐positive bone marrow cells were cultured in 96‐well plates in triplicate with various concentrations of GTN057 for 48 h. The cell viability was examined by MTT dye absorbance in accord with the manufacturer's manual. […]

[1] = Toxicity assessment in ICR mice; assay type: in vivo
Text: For the toxicity assessment of GTN057 in vivo, we intraperitoneally (i.p.)‐injected male 5‐week‐old ICR mice (CLEA, […]) dissolved in 1% Tween® 80 + 10% DMSO in saline on 2 consecutive days of every 3‐day period for 2 weeks. The mice were weighed every week. Peripheral blood was collected with a heparinized hematocrit tube (Terumo, Tokyo) from the tail vein of each mouse every week and was stained with Türk's solution (Merck). The numbers of leukocytes and neutrophils were counted using light microscopy.

## COc1c(OC(C)=O)c2c(c(O)c1C(C)C)C(=O)CC1C(C)(C)CCC[C@]1(O)C2 (stereo partly shown) [GTN057]
MUM24 cells
  Effect of combination treatment: additive anti‐myeloma effect
[1]; 100 mg/kg, 2 days of each 3-day period over 2 weeks, mice
  Neutropenia and systemic toxicity: no significant neutropenia or systemic toxicity
[1]; 40 or 100 mg/kg i.p., 2 consecutive days of each 3-day period for 2 weeks, ICR mice
  Body weight and leukocyte count: neither a loss of body weight nor leukocytopenia
[1]; i.p., 2 days of every 3-day period, mice
  Maximal tolerated dose: ≥ 100 mg/kg
